# Measured values as given in patent US9101618B2, “Method for treating and/or preventing neurodegenerative disease by adiponectin receptor agonist” (TOKYO METROPOLITAN INSTITUTE OF MEDICAL SCIENCE, priority 2011, dated 2015).
# Where a SMILES comes first, the peptide text is derived from it. The star is where a group is joined. Cbz = O=C(OCc1ccccc1)*
# Experiments:
# GSK-3β (beta) = assay: Addition of p38 MAPK inhibitor and AMPK inhibitor: phospho-GSK-3β western blotting; type: cell-based, rat; settings: 5 μM inhibitor 10 min, then adiponectin 1 μg/mL 30 min
# Protocol: The aforementioned B103 neuroblastoma cells (α (alpha)S) were inoculated on the 6-well plate and cultured to a state of about 80-90% confluence. After washing with PBS, the aforementioned cells were further cultured for 10 min in an inhibition test medium prepared by adding either 5 μM p38 MAPK inhibitor (SB203580, Promega) or 5 μM AMPK inhibitor (Compound C, Calbiochem) to a serum-free medium. As a control, DMSO was added to a serum-free medium instead of the aforementioned inhibitors. Later, either recombinant human adiponectin (1 μg/mL, trimer, PROSPEC) or PBS was added so as to culture the cells for 30 min. The cells collected were then lysed with the aforementioned cell lysis solution. Supernatants were collected after performing centrifugation at 100,000×g for 30 min, and then subjected to western blotting. Here, western blotting was performed in accordance with the procedures described in example 1.
# When performing western blotting to evaluate signal transduction pathways, the anti-phospho-GSK-3β (beta) (Ser9) antibody (D85E12, Cell Signaling Technology), the anti-GSK-3β (beta) antibody (BD Biosciences) and the anti-β (beta)-actin mouse monoclonal antibody (C-15, Sigma-Aldrich Japan Inc.) were used as primary antibodies after being appropriately diluted. Further, the HRP labeled anti-mouse IgG antibody (DAKO) was used as a secondary antibody after being appropriately diluted.
# B103 neuroblastoma cells [1] = assay: Induction of adiponectin mRNA expression by proteasome inhibition (RT-PCR); type: cell-based, rat; settings: 10 μM, six hours, regardless of the presence of α-synuclein expression
# Protocol: RT-PCR was performed in accordance with a method of Fujita et al. (Fujita et al., Nat. Commun. 1:110 (2010)). Total RNA was extracted from the frozen brain samples of the α (alpha)S tg mice and the non tg mice by ISOGEN (NIPPON GENE CO., LTD.), followed by performing DNase (DNase 1, Invitrogen, Life Technologies Japan Ltd.) treatment at 37° C. for 30 min. Here, cDNA was synthesized from the total RNA of 2.5 μg, using Superscript III First-Strand Synthesis system (Invitrogen, Life Technologies Japan Ltd.).
# A reaction condition of PCR was as follows. That is, PCR was at first performed at 94° C. for 5 min, followed by repeating 35 times a cycle of: 95° C. for 30 sec; 55° C. for 30 sec; and 72° C. for 60 sec. Subsequently, PCR was further performed at 72° C. for 10 min before reaching a stationary state and being left standing at 4° C. PCR products were electrophoresed in 1.2% agarose gel. With regard to an mRNA amount of each gene, concentrations of ethidium bromide-stained bands of the PCR products were quantitated by densitometer (ATTO). mRNA amounts of adiponectin were standardized by mRNA amounts of cyclophilin A.
# MG132 (Calbiochem, Merck & Co., Inc.) was used as a proteasome inhibitor. […] Six hours later, the aforementioned cells were collected, and expression of adiponectin mRNA was measured by RT-PCR.
# [2] = tested on: B103 neuroblastoma cells (α (alpha)S); assay: Effect of adiponectin siRNA on aggregate state of α-synuclein (western blotting of soluble fractions); type: cell-based, rat; settings: B103 neuroblastoma cells (αS), siRNA transduced, cultivated 72 hours, western blot
# Protocol: (§1) Rat adiponectin sense strand RNA: 5′-CAAUGACUCUACAUUUACAtt-3′ (SEQ. No. 15), antisense strand RNA: 5′-UGUAAAUGUAGAGUCAUUGtt-3′ (SEQ. No. 16), sense strand RNA of random sequence in control experiment: 5′-UCUUAAUCGCGUAUAAGGCtt-3′ (SEQ. No. 17) and antisense strand RNA: 5′-GCCUUAUACGCGAUUAAGAtt-3′ (SEQ. No. 18) were prepared utilizing Takara siRNA Design Support System (http://www.takara-bio.co.jp/rnai/) (Takara Bio Inc.). The B103 neuroblastoma cells (α (alpha)S) and the B103 neuroblastoma cells (vector) for the control experiment were cultured using a commercially available 6-well plate, and were transfected using Lipofectamine 2000 (Invitrogen, Life Technologies Japan Ltd.) in a state of 30-50% confluence. After performing transfection for six hours, a medium was replaced with a DMEM containing 10% FBS. After performing cultivation for 24 hours, the medium was then replaced with a serum-free DMEM medium so as to avoid effects of adiponectin. After performing cultivation for another three days, transfected B103 neuroblastoma cells were collected so as to be subjected to a detection of an aggregate state of α (alpha)-synuclein and a measurement of proteasomal activity. […]
# Extraction of each soluble fraction and quantification of protein in each soluble fraction by western blotting were performed in accordance with procedures similar to those of example 1 through example 3.
# [3] = tested on: B103 neuroblastoma cells (α (alpha)S); assay: Thioflavin T staining of adiponectin siRNA-transduced cells; type: cell-based, rat; settings: α-synuclein expressing neuroblastoma cells with adiponectin expression suppressed
# Protocol: as §1, with “activity. Further, transfection to B103 neuroblastoma cells for thioflavin T staining were carried out on a polylysine-coated cover glass.” for “activity.”
# B103 neuroblastoma cells [4] = assay: Measurement of proteasomal activity in siRNA-transduced cells; type: cell-based, rat; settings: compared to cells transduced with siRNA of random sequence
# Protocol: as §1, with “FBS.” for “FBS. After performing cultivation for 24 hours, the medium was then replaced with a serum-free DMEM medium so as to avoid effects of adiponectin. After performing cultivation for another three days, transfected B103 neuroblastoma cells were collected so as to be subjected to a detection of an aggregate state of α (alpha)-synuclein and a measurement of proteasomal activity.”
# siRNA-transduced B103 neuroblastoma cells were collected with HEPES buffer (50 mM HEPES (pH 7.4), 10 mM EDTA, 10 mM NaCl). […] Protein concentrations were measured, and […] thereof was dissolved in HEPES buffer containing 40 μM of benzyloxycarbonyl-Leu-Leu-Glu-amidomethylcoumarin fluorescent proteasome substrate (Chemicon, Japan Millipore Corporation). Proteasomal activity was calculated as follows. That is, a disintegrated amount of substrate was measured by Berthold Mithras LB940 microplate reader (Berthold Japan co. ltd.), according to time for one hour and at 37° C. […]
# α (alpha)S tg mouse [5] = assay: Continuous nasal administration of globular adiponectin: GFAP in surfactant insoluble fraction; type: in vivo; settings: versus gAPN non-administration group
# Protocol: An α (alpha)S tg mouse and a non tg mouse were distinguished in accordance with the method described in example 2. Globular adiponectin (gAPN) was nasally administered to the α (alpha)S tg mouse and the non tg mouse on days 0, 3, 6, 9, 12, 15, 18 and 21. Further, as a control, PBS was nasally administered to the α (alpha)S tg mouse and the non tg mouse on days 0, 3, 6, 9, 12, 15, 18 and 21. When performing nasal administration, 10 μL of the transmucosal absorption enhancer (PBS containing 5 mg/mL poly-L-arginine hydrochloride (molecular mass>70,000 (Sigma-Aldrich Japan Inc.)) was nasally administered to the mouse. Half an hour later, either 10 μL of globular adiponectin (PBS containing 1 mg/mL gAPN (Prospec)) or 10 μL of PBS was nasally administered to the mouse. On day 22 of nasal administration, the aforementioned mouse was euthanized in accordance with the method described in example 2, followed by collecting brain samples thereof. The hemispheres used for pathological analysis were immersion-fixed using 4% paraformaldehyde, followed by being embedded in paraffin. The other hemispheres used for western blotting were frozen by liquid nitrogen and stored at −80° C. […]
# α (alpha)S tg mouse [6] = assay: Continuous nasal administration of globular adiponectin: immunohistochemical staining of brain; type: in vivo
# Protocol: (§2) An α (alpha)S tg mouse and a non tg mouse were distinguished in accordance with the method described in example 2. Globular adiponectin (gAPN) was nasally administered to the α (alpha)S tg mouse and the non tg mouse on days 0, 3, 6, 9, 12, 15, 18 and 21. Further, as a control, PBS was nasally administered to the α (alpha)S tg mouse and the non tg mouse on days 0, 3, 6, 9, 12, 15, 18 and 21. When performing nasal administration, 10 μL of the transmucosal absorption enhancer (PBS containing 5 mg/mL poly-L-arginine hydrochloride (molecular mass>70,000 (Sigma-Aldrich Japan Inc.)) was nasally administered to the mouse. Half an hour later, either 10 μL of globular adiponectin (PBS containing 1 mg/mL gAPN (Prospec)) or 10 μL of PBS was nasally administered to the mouse. On day 22 of nasal administration, the aforementioned mouse was euthanized in accordance with the method described in example 2, followed by collecting brain samples thereof. The hemispheres used for pathological analysis were immersion-fixed using 4% paraformaldehyde, followed by being embedded in paraffin. The other hemispheres used for western blotting were frozen by liquid nitrogen and stored at −80° C.
# Immunohistochemical staining was performed in a standard manner known to those skilled in the art. Briefly, thin sliced sections were prepared at a thickness of 4 μm, using the brain samples embedded in paraffin. After being deparaffinized, the thin sliced sections were placed in a 10 mM sodium citrate buffer solution (pH 6.0) to be subjected to an antigen activation treatment (95° C., 10 min) using microwave (MW). After completing the antigen activation treatment, the thin sliced sections were further treated for 15 min with methanol containing 3% hydrogen peroxide. After washing, the thin sliced sections were then subjected to blocking for 30 min, using 10% goat normal serum (Vector Laboratories, Inc.)/TBS (25 mM Tris-HCl (pH 7.5), 0.15 M NaCl). Later, the thin sliced sections were incubated overnight at 4° C. with a primary antibody (anti-α (alpha)-synuclein antibody or anti-GFAP antibody) diluted with 0.1% bovine serum albumin (BSA)/TBS. After washing, the thin sliced sections were further incubated for 20 min at room temperature with a secondary antibody (biotin labeled anti-mouse IgG antibody (Vector Laboratories, Inc.)) diluted with 0.1% BSA/TBS. When performing staining, there were used ABC kit (Vector Laboratories, Inc.) and 3,3′-diaminobenzidine tetrahydrochloride (DAB). After completing staining, the thin sliced sections were observed using a microscope.
# α (alpha)S tg mouse [7] = assay: Continuous nasal administration of globular adiponectin: α-synuclein aggregation in various fractions; type: in vivo; settings: cerebral cortex, gAPN-administered group
# Protocol: as §2
# The TBS soluble fraction, the SDS soluble fraction and the formic acid soluble fraction were prepared from the cerebral cortex of the brain sample in accordance with the method described in example 1. […]
# [8] = nasal, days 0-21 every 3 days, brain on day 22
molecule,measurement,setting,value
C[S+]([O-])c1ccc(-c2nc(-c3ccncc3)c(-c3ccc(F)cc3)[nH]2)cc1 (stereo not drawn) [SB203580],phosphorylated GSK-3β in surfactant soluble fraction,GSK-3β (beta),not detected
c1cc(-c2cnn3cc(-c4ccc(OCCN5CCCCC5)cc4)cnc23)ccn1 [Compound C],phosphorylated GSK-3β in surfactant soluble fraction,GSK-3β (beta),detected
CC(C)C[C@@H](C=O)NC(=O)[C@H](CC(C)C)NC(=O)[C@H](CC(C)C)NC(=O)OCc1ccccc1 [MG132] (Cbz-Leu-Leu-Leu-aldehyde),induction of adiponectin expression (mRNA),B103 neuroblastoma cells [1],increased
"APN siRNA: Rat adiponectin siRNA, sense strand SEQ. No. 15, antisense strand SEQ. No. 16 (sense CAAUGACUCUACAUUUACATT; antisense UGUAAAUGUAGAGUCAUUGTT; RNA strands with tt 3' overhangs, overhang chemistry not given here, further chemistry not given here)",α-synuclein in the formic acid soluble fraction,[2],also detected
same,thioflavin T staining (aggregation of protein),[3],thioflavin T-positive
same,proteasomal activity,B103 neuroblastoma cells [4],low
"gAPN: Globular adiponectin (Prospec); adiponectin isoform whose N-terminal collagen-like domain has been cut by protease (protein, listed as Homo sapiens, human adiponectin globular domain, Globular adiponectin (Prospec); adiponectin isoform whose N-terminal collagen-like domain has been cut by protease) PGEGAYVYRSAFSVGLETYVTIPNMPIRFTKIFYNQQNHYDGSTGKFHCNIPGLYYFAYHITVYMKDVKVSLFKKDKAMLFTYDQYQENNVDQASGSVLLHLEVGDQVWLQVYGEGERNGLYADNDNDSTFTGFLLYHDTN",GFAP in surfactant insoluble fraction,α (alpha)S tg mouse [5],observed less
same,adverse effects,α (alpha)S tg mouse [6]; continuous nasal administration,not observed particularly
same,growth of astrocyte in cerebral cortex,α (alpha)S tg mouse [6]; [8],hardly detected
same,α-synuclein aggregates in olfactory bulb,α (alpha)S tg mouse [6]; [8],hardly detected
same,α-synuclein aggregates in thalamus,α (alpha)S tg mouse [6]; [8],hardly detected
same,amount of α-synuclein aggregates in SDS soluble fraction,α (alpha)S tg mouse [7],decreased significantly
